This data set is described as follows: In vitro dissolution of multiple capsules together in 0.1 N HCl (USP Apparatus II). The data set is classed as physicochemical.

Each structure is given as a SMILES string.

Method: To test the anti-over ingestion properties of the pharmaceutical composition, multiple capsules were combined in a single reaction vessel and percentage of API released was measured. […] The in vitro dissolutions studies of dextromethorphan from Amberlite™ IRP69 from multiple capsules (1, 5, and 10) were carried out in 0.1 HCl with each 200 mg capsule containing 40 mg of the drug.
An additional experiment was performed to support the concept that the ceiling effect was not caused by solubility/sink limitation, but rather by retention by sequestering.
Next, the possibility to gain the same sequestering effect using physical blend of drug with resin instead of drug resinate complex was explored.

For the molecule `COc1ccc2c(c1)[C@]13CCCC[C@@H]1[C@H](C2)N(C)CC3` [dextromethorphan], the “release from 1 capsule (40 mg) vs 10 capsules (400 mg) without resin” value is recorded as “dose proportional release”.

Values taken from patent publication US9849125B1, “Anti-overingestion dosage forms” (BANNER LIFE SCIENCES LLC, priority 2015, dated 2017).
